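Method: 48-hour compound exposure of cells in 96-well plates, five concentrations, linear interpolation of endpoints. GI50 is the concentration that inhibits growth by half. Definition used: TGI = concentration required for complete inhibition of growth.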
Legend:
Experiment in all cases: NCI-60 cell line screen, 48 h
RPMI-8226 leukemia = tested on: RPMI-8226 leukemia
SR leukemia = tested on: SR leukemia
OVCAR-4 ovarian = tested on: OVCAR-4 ovarian
SK-MEL-2 melanoma = tested on: SK-MEL-2 melanoma
OVCAR-5 ovarian = tested on: OVCAR-5 ovarian
NCI-H23 lung = tested on: NCI-H23 lung
K-562 leukemia = tested on: K-562 leukemia
TK-10 renal = tested on: TK-10 renal
NCI-H226 lung = tested on: NCI-H226 lung
HCC-2998 colon = tested on: HCC-2998 colon
M14 melanoma = tested on: M14 melanoma
MOLT-4 leukemia = tested on: MOLT-4 leukemia
SW-620 colon = tested on: SW-620 colon
COLO 205 colon = tested on: COLO 205 colon
NCI/ADR-RES ovarian = tested on: NCI/ADR-RES ovarian
SNB-19 CNS = tested on: SNB-19 CNS
IGROV1 ovarian = tested on: IGROV1 ovarian
U251 CNS = tested on: U251 CNS
NCI-H460 lung = tested on: NCI-H460 lung
SK-MEL-5 melanoma = tested on: SK-MEL-5 melanoma
786-0 renal = tested on: 786-0 renal
HCT-116 colon = tested on: HCT-116 colon
HT29 colon = tested on: HT29 colon
CCRF-CEM leukemia = tested on: CCRF-CEM leukemia
DU-145 prostate = tested on: DU-145 prostate
ACHN renal = tested on: ACHN renal
UACC-257 melanoma = tested on: UACC-257 melanoma
MCF7 breast = tested on: MCF7 breast
PC-3 prostate = tested on: PC-3 prostate
KM12 colon = tested on: KM12 colon
UO-31 renal = tested on: UO-31 renal
SN12C renal = tested on: SN12C renal
NCI-H522 lung = tested on: NCI-H522 lung
EKVX NSCLC = tested on: EKVX NSCLC
SK-OV-3 ovarian = tested on: SK-OV-3 ovarian
OVCAR-3 ovarian = tested on: OVCAR-3 ovarian
SF-295 CNS = tested on: SF-295 CNS
LOX IMVI melanoma = tested on: LOX IMVI melanoma
MDA-MB-231 breast = tested on: MDA-MB-231 breast
HS 578T breast = tested on: HS 578T breast
HOP-62 NSCLC = tested on: HOP-62 NSCLC
SK-MEL-28 melanoma = tested on: SK-MEL-28 melanoma
OVCAR-8 ovarian = tested on: OVCAR-8 ovarian
A549 NSCLC = tested on: A549 NSCLC
SNB-75 CNS = tested on: SNB-75 CNS
UACC-62 melanoma = tested on: UACC-62 melanoma
SF-539 CNS = tested on: SF-539 CNS
T-47D breast = tested on: T-47D breast
A498 renal = tested on: A498 renal
HCT-15 colon = tested on: HCT-15 colon
HL-60(TB) leukemia = tested on: HL-60(TB) leukemia
BT-549 breast = tested on: BT-549 breast
MALME-3M melanoma = tested on: MALME-3M melanoma
CAKI-1 renal = tested on: CAKI-1 renal
RXF 393 renal = tested on: RXF 393 renal
MDA-MB-435 = tested on: MDA-MB-435
SF-268 CNS = tested on: SF-268 CNS

Q: COc1ccc2c(c1)CC[C@@H]1[C@@H]2CC[C@]2(C)C(c3ccsc3)=C(/C=C/C(=O)c3ccccc3)C[C@@H]12 was tested. Which GI50 (RPMI-8226 leukemia) did it give?
A: 50.3 µM

Q: What about the TGI (RPMI-8226 leukemia) of the same compound?
A: > 100 µM

Q: What about the GI50 (SR leukemia) of the same compound?
A: 19.9 µM

Q: What about the TGI (SR leukemia) of the same compound?
A: > 100 µM

Q: What about the GI50 (OVCAR-4 ovarian) of the same compound?
A: > 100 µM

Q: What about the TGI (OVCAR-4 ovarian) of the same compound?
A: > 100 µM

Q: And the GI50 (SK-MEL-2 melanoma)?
A: > 100 µM

Q: What about the TGI (SK-MEL-2 melanoma) of the same compound?
A: > 100 µM

Q: What about the GI50 (OVCAR-5 ovarian) of the same compound?
A: > 100 µM

Q: And the TGI (OVCAR-5 ovarian)?
A: > 100 µM

Q: And the GI50 (NCI-H23 lung)?
A: > 100 µM

Q: What about the TGI (NCI-H23 lung) of the same compound?
A: > 100 µM

Q: What about the GI50 (K-562 leukemia) of the same compound?
A: > 100 µM

Q: What about the TGI (K-562 leukemia) of the same compound?
A: > 100 µM

Q: What about the GI50 (TK-10 renal) of the same compound?
A: > 100 µM

Q: What about the TGI (TK-10 renal) of the same compound?
A: > 100 µM

Q: And the GI50 (NCI-H226 lung)?
A: > 100 µM

Q: What about the TGI (NCI-H226 lung) of the same compound?
A: > 100 µM

Q: And the GI50 (HCC-2998 colon)?
A: 67.4 µM

Q: And the TGI (HCC-2998 colon)?
A: > 100 µM

Q: What about the GI50 (M14 melanoma) of the same compound?
A: > 100 µM

Q: And the TGI (M14 melanoma)?
A: > 100 µM

Q: And the GI50 (MOLT-4 leukemia)?
A: 2.67 µM

Q: What about the TGI (MOLT-4 leukemia) of the same compound?
A: > 100 µM

Q: And the GI50 (SW-620 colon)?
A: > 100 µM

Q: What about the TGI (SW-620 colon) of the same compound?
A: > 100 µM

Q: And the GI50 (COLO 205 colon)?
A: > 100 µM

Q: What about the TGI (COLO 205 colon) of the same compound?
A: > 100 µM

Q: What about the GI50 (NCI/ADR-RES ovarian) of the same compound?
A: > 100 µM

Q: And the TGI (NCI/ADR-RES ovarian)?
A: > 100 µM

Q: What about the GI50 (SNB-19 CNS) of the same compound?
A: > 100 µM

Q: And the TGI (SNB-19 CNS)?
A: > 100 µM

Q: What about the GI50 (IGROV1 ovarian) of the same compound?
A: > 100 µM

Q: And the TGI (IGROV1 ovarian)?
A: > 100 µM

Q: And the GI50 (U251 CNS)?
A: > 100 µM

Q: And the TGI (U251 CNS)?
A: > 100 µM

Q: What about the GI50 (NCI-H460 lung) of the same compound?
A: > 100 µM

Q: What about the TGI (NCI-H460 lung) of the same compound?
A: > 100 µM

Q: And the GI50 (SK-MEL-5 melanoma)?
A: > 100 µM

Q: What about the TGI (SK-MEL-5 melanoma) of the same compound?
A: > 100 µM

Q: And the GI50 (786-0 renal)?
A: > 100 µM

Q: What about the TGI (786-0 renal) of the same compound?
A: > 100 µM

Q: What about the GI50 (HCT-116 colon) of the same compound?
A: > 100 µM

Q: What about the TGI (HCT-116 colon) of the same compound?
A: > 100 µM

Q: And the GI50 (HT29 colon)?
A: > 100 µM

Q: What about the TGI (HT29 colon) of the same compound?
A: > 100 µM

Q: What about the GI50 (CCRF-CEM leukemia) of the same compound?
A: > 100 µM

Q: And the TGI (CCRF-CEM leukemia)?
A: > 100 µM

Q: What about the GI50 (DU-145 prostate) of the same compound?
A: > 100 µM

Q: And the TGI (DU-145 prostate)?
A: > 100 µM

Q: And the GI50 (ACHN renal)?
A: > 100 µM

Q: What about the TGI (ACHN renal) of the same compound?
A: > 100 µM

Q: And the GI50 (UACC-257 melanoma)?
A: > 100 µM

Q: What about the TGI (UACC-257 melanoma) of the same compound?
A: > 100 µM

Q: And the GI50 (MCF7 breast)?
A: > 100 µM

Q: And the TGI (MCF7 breast)?
A: > 100 µM

Q: And the GI50 (PC-3 prostate)?
A: 39 µM

Q: And the TGI (PC-3 prostate)?
A: > 100 µM

Q: What about the GI50 (KM12 colon) of the same compound?
A: > 100 µM

Q: And the TGI (KM12 colon)?
A: > 100 µM

Q: What about the GI50 (UO-31 renal) of the same compound?
A: > 100 µM

Q: And the TGI (UO-31 renal)?
A: > 100 µM

Q: And the GI50 (SN12C renal)?
A: > 100 µM

Q: What about the TGI (SN12C renal) of the same compound?
A: > 100 µM

Q: And the GI50 (NCI-H522 lung)?
A: > 100 µM

Q: And the TGI (NCI-H522 lung)?
A: > 100 µM

Q: What about the GI50 (EKVX NSCLC) of the same compound?
A: > 100 µM

Q: And the TGI (EKVX NSCLC)?
A: > 100 µM

Q: And the GI50 (SK-OV-3 ovarian)?
A: > 100 µM

Q: What about the TGI (SK-OV-3 ovarian) of the same compound?
A: > 100 µM

Q: What about the GI50 (OVCAR-3 ovarian) of the same compound?
A: > 100 µM

Q: And the TGI (OVCAR-3 ovarian)?
A: > 100 µM

Q: What about the GI50 (SF-295 CNS) of the same compound?
A: > 100 µM

Q: And the TGI (SF-295 CNS)?
A: > 100 µM

Q: What about the GI50 (LOX IMVI melanoma) of the same compound?
A: > 100 µM

Q: And the TGI (LOX IMVI melanoma)?
A: > 100 µM

Q: And the GI50 (MDA-MB-231 breast)?
A: > 100 µM

Q: What about the TGI (MDA-MB-231 breast) of the same compound?
A: > 100 µM

Q: And the GI50 (HS 578T breast)?
A: > 100 µM

Q: What about the TGI (HS 578T breast) of the same compound?
A: > 100 µM

Q: What about the GI50 (HOP-62 NSCLC) of the same compound?
A: > 100 µM

Q: And the TGI (HOP-62 NSCLC)?
A: > 100 µM

Q: And the GI50 (SK-MEL-28 melanoma)?
A: > 100 µM

Q: What about the TGI (SK-MEL-28 melanoma) of the same compound?
A: > 100 µM

Q: What about the GI50 (OVCAR-8 ovarian) of the same compound?
A: > 100 µM

Q: And the TGI (OVCAR-8 ovarian)?
A: > 100 µM

Q: And the GI50 (A549 NSCLC)?
A: > 100 µM

Q: And the TGI (A549 NSCLC)?
A: > 100 µM

Q: And the GI50 (SNB-75 CNS)?
A: > 100 µM

Q: What about the TGI (SNB-75 CNS) of the same compound?
A: > 100 µM

Q: What about the GI50 (UACC-62 melanoma) of the same compound?
A: > 100 µM

Q: And the TGI (UACC-62 melanoma)?
A: > 100 µM

Q: What about the GI50 (SF-539 CNS) of the same compound?
A: > 100 µM

Q: And the TGI (SF-539 CNS)?
A: > 100 µM

Q: What about the GI50 (T-47D breast) of the same compound?
A: > 100 µM

Q: And the TGI (T-47D breast)?
A: > 100 µM

Q: And the GI50 (A498 renal)?
A: > 100 µM

Q: And the TGI (A498 renal)?
A: > 100 µM

Q: And the GI50 (HCT-15 colon)?
A: > 100 µM

Q: And the TGI (HCT-15 colon)?
A: > 100 µM

Q: And the GI50 (HL-60(TB) leukemia)?
A: 13.4 µM

Q: What about the TGI (HL-60(TB) leukemia) of the same compound?
A: > 100 µM

Q: What about the GI50 (BT-549 breast) of the same compound?
A: > 100 µM

Q: What about the TGI (BT-549 breast) of the same compound?
A: > 100 µM

Q: And the GI50 (MALME-3M melanoma)?
A: > 100 µM

Q: What about the TGI (MALME-3M melanoma) of the same compound?
A: > 100 µM

Q: What about the GI50 (CAKI-1 renal) of the same compound?
A: > 100 µM

Q: And the TGI (CAKI-1 renal)?
A: > 100 µM

Q: What about the GI50 (RXF 393 renal) of the same compound?
A: > 100 µM

Q: And the TGI (RXF 393 renal)?
A: > 100 µM

Q: What about the GI50 (MDA-MB-435) of the same compound?
A: > 100 µM

Q: What about the TGI (MDA-MB-435) of the same compound?
A: > 100 µM

Q: And the GI50 (SF-268 CNS)?
A: > 100 µM

Q: And the TGI (SF-268 CNS)?
A: > 100 µM

From PubChem BioAssay (NCI)
